Measured values published in ChEMBL document CHEMBL3091363, “Discovery of N-{5-[3-(3-hydroxypiperidin-1-yl)-1,2,4-oxadiazol-5-yl]-4-methyl-1,3-thiazol-2-yl}acetamide (TASP0415914) as an orally potent phosphoinositide 3-kinase γ inhibitor for the treatment of inflammatory diseases” (Bioorg Med Chem, 2013).
Each block holds one compound with its values, some of them ahead of it.

How the values were obtained:
[1] = target: Phosphatidylinositol 4,5-bisphosphate 3-kinase catalytic subunit gamma isoform (Homo sapiens, UniProt P48736); experiment: Inhibition of human PI3Kgamma using PtdIns/PtdSer as substrate after 2 hrs by scintillation counting analysis in presence of gamma[33P]ATP
Phosphatidylinositol 4,5-bisphosphate 3-kinase catalytic subunit gamma isoform (Homo sapiens, UniProt P48736), sequence (P48736 whole entry, canonical isoform): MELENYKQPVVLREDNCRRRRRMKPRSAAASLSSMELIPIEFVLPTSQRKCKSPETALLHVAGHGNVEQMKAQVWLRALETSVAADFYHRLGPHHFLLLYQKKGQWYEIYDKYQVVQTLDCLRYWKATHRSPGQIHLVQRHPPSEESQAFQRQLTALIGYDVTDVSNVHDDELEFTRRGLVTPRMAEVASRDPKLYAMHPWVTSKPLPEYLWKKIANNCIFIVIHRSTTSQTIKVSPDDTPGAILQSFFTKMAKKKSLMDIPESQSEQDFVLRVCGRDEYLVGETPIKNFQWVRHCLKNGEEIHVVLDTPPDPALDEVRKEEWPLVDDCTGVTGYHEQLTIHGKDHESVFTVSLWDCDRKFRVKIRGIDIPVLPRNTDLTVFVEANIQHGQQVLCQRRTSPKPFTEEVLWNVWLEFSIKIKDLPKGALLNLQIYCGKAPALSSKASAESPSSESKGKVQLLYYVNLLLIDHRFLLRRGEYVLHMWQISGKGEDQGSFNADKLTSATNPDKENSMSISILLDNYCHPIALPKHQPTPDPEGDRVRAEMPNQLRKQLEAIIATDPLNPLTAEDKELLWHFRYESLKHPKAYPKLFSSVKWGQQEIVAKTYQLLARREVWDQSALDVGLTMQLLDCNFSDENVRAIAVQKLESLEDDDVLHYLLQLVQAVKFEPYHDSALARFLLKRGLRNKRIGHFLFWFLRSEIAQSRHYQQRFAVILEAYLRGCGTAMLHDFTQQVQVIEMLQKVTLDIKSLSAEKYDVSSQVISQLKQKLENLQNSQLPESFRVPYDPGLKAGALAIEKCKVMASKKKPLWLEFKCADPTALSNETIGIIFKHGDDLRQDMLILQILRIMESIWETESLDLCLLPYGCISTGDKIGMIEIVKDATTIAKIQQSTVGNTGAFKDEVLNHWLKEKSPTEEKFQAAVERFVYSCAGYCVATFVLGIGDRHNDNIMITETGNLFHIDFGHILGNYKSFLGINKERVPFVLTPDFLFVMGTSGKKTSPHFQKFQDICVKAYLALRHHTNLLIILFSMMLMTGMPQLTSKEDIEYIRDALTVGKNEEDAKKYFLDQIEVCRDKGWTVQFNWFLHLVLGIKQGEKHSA

[2] = AUC (0 to 8 hrs) in Sprague-Dawley rat at 30 mg/kg, po; format: ADME, organism-based; parameters: time < 8 hr, dose 30 mg/kg, route oral; details: plasma
[3] = Metabolic stability in human liver microsomes assessed as compound remaining at 5 uM after 15 mins by LC-MS/MS analysis; format: ADME; details: read-out: Stability
[4] = Cmax in Sprague-Dawley rat at 30 mg/kg, po; format: ADME, organism-based; parameters: dose 30 mg/kg, route oral; details: in vivo
[5] = Metabolic stability in rat liver microsomes assessed as compound remaining at 5 uM after 15 mins by LC-MS/MS analysis; format: ADME; details: read-out: Stability
[6] = target: Phosphatidylinositol 4,5-bisphosphate 3-kinase catalytic subunit gamma isoform (Mus musculus, UniProt Q9JHG7); experiment: Inhibition of PI3Kgamma in mouse RAW264.7 cells assessed as C5a-mediated PKB/Akt phosphorylation preincubated for 30 mins followed by C5a stimulation measured after 5 mins; format: cell-based
Phosphatidylinositol 4,5-bisphosphate 3-kinase catalytic subunit gamma isoform (Mus musculus, UniProt Q9JHG7), sequence (Q9JHG7 whole entry, canonical isoform): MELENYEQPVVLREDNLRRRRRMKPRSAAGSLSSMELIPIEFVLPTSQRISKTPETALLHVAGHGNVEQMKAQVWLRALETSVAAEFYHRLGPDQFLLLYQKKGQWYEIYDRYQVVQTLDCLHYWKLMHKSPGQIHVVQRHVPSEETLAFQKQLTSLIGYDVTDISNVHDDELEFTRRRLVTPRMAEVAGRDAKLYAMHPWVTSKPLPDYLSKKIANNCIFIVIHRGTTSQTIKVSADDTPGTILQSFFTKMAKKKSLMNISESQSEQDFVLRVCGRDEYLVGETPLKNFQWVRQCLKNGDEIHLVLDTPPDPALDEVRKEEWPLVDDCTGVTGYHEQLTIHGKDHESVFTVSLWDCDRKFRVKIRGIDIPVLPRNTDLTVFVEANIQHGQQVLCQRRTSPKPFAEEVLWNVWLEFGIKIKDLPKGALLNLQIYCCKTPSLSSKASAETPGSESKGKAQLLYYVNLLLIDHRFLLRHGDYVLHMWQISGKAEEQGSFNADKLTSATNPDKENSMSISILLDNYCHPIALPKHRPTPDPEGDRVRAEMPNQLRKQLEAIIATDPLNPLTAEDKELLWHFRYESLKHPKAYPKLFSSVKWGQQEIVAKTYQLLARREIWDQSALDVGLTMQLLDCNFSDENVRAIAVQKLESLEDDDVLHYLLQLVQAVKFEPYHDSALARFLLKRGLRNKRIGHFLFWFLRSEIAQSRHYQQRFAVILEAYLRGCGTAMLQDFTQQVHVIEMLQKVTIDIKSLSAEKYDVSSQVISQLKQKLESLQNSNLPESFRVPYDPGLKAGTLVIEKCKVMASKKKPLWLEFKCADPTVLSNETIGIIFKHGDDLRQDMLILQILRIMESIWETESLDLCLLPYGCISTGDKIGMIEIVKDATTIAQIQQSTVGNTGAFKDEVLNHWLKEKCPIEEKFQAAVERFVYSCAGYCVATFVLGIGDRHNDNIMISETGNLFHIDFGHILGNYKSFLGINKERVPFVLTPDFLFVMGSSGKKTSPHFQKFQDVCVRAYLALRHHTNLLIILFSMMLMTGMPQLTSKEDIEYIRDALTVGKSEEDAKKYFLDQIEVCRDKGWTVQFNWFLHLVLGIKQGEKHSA

[7] = tested on: Salmonella typhimurium; experiment: Mutagenicity in Salmonella typhimurium TA98 up to 5000 ug/ml by Ames test in absence of rat S9 fraction; format: toxicity, organism-based; details: salmonella enterica subsp. enterica serovar typhimurium
[8] = tested on: Salmonella typhimurium; experiment: Mutagenicity in Salmonella typhimurium TA100 up to 5000 ug/ml by Ames test in absence of rat S9 fraction; format: toxicity, organism-based; details: salmonella enterica subsp. enterica serovar typhimurium
[9] = tested on: Salmonella typhimurium; experiment: Mutagenicity in Salmonella typhimurium TA98 up to 5000 ug/ml by Ames test in presence of rat S9 fraction; format: toxicity, organism-based; details: salmonella enterica subsp. enterica serovar typhimurium
[10] = tested on: Salmonella typhimurium; experiment: Mutagenicity in Salmonella typhimurium TA100 up to 2000 ug/ml by Ames fluctuation test; format: toxicity, organism-based; details: salmonella enterica subsp. enterica serovar typhimurium
[11] = tested on: Salmonella typhimurium; experiment: Mutagenicity in Salmonella typhimurium TA98 up to 2000 ug/ml by Ames fluctuation test; format: toxicity, organism-based; details: salmonella enterica subsp. enterica serovar typhimurium
[12] = tested on: Escherichia coli; experiment: Mutagenicity in Escherichia coli WP2uvrA up to 5000 ug/ml by Ames test in absence of rat S9 fraction; format: toxicity, organism-based
[13] = tested on: Salmonella typhimurium; experiment: Mutagenicity in Salmonella typhimurium TA100 up to 5000 ug/ml by Ames test in presence of rat S9 fraction; format: toxicity, organism-based; details: salmonella enterica subsp. enterica serovar typhimurium
[14] = tested on: Escherichia coli; experiment: Mutagenicity in Escherichia coli WP2uvrA up to 5000 ug/ml by Ames test in presence of rat S9 fraction; format: toxicity, organism-based
[15] = Metabolic stability in rat hepatocytes assessed as compound remaining at 5 uM after 1 hr by LC-MS/MS analysis; format: ADME, cell-based, Hepatocyte; details: read-out: Stability
[16] = Metabolic stability in human hepatocytes assessed as compound remaining at 5 uM after 1 hr by LC-MS/MS analysis; format: ADME, cell-based, Hepatocyte; details: read-out: Stability
[17] = tested on: Mus musculus; experiment: Antiarthritic activity in po dosed DBA/1 mouse assessed as suppression of acute collagen-induced arthritis administered as bid for 14 days; format: functional, organism-based
[18] = target: Cytochrome P450 2C19 (Homo sapiens, UniProt P33261); experiment: Inhibition of CYP2C19 (unknown origin) up to 10 uM; format: ADME
Cytochrome P450 2C19, sequence (P33261 whole entry): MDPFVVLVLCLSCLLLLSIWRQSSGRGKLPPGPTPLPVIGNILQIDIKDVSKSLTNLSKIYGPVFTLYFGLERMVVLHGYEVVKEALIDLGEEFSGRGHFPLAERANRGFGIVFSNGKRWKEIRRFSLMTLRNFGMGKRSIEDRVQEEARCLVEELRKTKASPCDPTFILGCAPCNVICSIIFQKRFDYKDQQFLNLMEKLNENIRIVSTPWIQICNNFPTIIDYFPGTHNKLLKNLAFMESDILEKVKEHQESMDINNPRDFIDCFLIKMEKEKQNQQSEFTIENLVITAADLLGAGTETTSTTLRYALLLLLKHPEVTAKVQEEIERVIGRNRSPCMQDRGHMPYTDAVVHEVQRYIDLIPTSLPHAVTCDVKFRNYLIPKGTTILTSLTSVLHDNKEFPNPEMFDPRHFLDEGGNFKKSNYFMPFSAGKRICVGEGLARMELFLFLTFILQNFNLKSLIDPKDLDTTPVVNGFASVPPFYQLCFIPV

[19] = target: Cytochrome P450 2D6 (Homo sapiens, UniProt P10635); experiment: Inhibition of CYP2D6 (unknown origin) up to 10 uM; format: ADME
Cytochrome P450 2D6, sequence (P10635 whole entry): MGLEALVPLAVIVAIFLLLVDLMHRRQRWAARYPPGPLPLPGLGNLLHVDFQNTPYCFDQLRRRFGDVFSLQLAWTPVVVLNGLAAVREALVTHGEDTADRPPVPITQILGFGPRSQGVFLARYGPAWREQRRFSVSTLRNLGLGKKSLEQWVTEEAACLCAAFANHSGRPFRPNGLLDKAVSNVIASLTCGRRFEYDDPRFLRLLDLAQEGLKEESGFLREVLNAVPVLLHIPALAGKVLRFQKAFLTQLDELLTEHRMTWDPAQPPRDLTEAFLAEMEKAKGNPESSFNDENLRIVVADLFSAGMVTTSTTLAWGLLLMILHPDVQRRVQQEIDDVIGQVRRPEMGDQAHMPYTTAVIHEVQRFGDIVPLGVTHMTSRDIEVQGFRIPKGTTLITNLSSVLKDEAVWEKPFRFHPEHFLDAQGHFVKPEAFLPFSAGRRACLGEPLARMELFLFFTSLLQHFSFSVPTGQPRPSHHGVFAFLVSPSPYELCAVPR

[20] = target: Cytochrome P450 2C9 (Homo sapiens, UniProt P11712); experiment: Inhibition of CYP2C9 (unknown origin) up to 10 uM; format: ADME
Cytochrome P450 2C9, sequence (P11712 whole entry): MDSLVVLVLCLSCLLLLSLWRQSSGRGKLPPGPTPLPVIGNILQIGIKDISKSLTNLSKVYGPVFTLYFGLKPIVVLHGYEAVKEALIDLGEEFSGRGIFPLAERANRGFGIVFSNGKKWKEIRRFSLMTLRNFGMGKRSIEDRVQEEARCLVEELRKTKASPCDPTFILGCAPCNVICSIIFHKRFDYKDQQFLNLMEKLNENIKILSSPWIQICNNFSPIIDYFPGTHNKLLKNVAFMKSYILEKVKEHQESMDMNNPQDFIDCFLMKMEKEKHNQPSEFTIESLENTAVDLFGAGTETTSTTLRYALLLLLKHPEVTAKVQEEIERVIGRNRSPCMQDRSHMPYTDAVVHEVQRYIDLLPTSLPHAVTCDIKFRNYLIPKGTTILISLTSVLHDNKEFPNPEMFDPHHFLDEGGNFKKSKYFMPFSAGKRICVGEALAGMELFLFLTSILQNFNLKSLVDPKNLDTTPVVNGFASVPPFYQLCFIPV

[21] = target: Cytochrome P450 3A4 (Homo sapiens, UniProt P08684); experiment: Inhibition of CYP3A4 (unknown origin) up to 10 uM; format: ADME
Cytochrome P450 3A4, sequence (P08684 whole entry): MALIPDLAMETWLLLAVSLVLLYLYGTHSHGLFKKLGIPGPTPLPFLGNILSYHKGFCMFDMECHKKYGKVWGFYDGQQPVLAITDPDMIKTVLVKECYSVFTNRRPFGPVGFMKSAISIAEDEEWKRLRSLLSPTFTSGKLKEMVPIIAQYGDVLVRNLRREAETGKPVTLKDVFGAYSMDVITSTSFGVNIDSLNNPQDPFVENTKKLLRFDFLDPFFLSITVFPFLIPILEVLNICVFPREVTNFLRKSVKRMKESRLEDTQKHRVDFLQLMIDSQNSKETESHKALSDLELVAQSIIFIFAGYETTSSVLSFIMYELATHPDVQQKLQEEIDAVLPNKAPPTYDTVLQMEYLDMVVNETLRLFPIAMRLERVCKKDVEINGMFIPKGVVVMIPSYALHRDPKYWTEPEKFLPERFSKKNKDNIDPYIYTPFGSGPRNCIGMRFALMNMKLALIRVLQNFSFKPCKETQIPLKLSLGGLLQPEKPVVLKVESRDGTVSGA

[22] = target: T1, Cytochrome P450 1A2 (Homo sapiens, UniProt P05177); experiment: Inhibition of CYP1A2 (unknown origin) up to 10 uM; format: ADME
T1 sequence (P05177 whole entry): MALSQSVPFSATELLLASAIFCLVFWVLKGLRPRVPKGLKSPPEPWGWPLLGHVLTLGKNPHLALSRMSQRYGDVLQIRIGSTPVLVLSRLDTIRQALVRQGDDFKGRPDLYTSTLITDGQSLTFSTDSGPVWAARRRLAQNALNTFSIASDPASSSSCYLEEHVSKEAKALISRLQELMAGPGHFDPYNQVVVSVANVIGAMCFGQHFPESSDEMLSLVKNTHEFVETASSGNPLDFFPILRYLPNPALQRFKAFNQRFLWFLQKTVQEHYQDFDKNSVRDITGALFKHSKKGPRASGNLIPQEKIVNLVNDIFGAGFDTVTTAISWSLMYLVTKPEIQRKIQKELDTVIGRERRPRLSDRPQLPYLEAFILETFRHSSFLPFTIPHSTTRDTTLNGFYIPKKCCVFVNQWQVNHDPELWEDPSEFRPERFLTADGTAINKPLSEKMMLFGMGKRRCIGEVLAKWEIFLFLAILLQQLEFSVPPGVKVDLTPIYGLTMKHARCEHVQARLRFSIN

IC50 [1]: 68 nM
SMILES: CC(=O)Nc1nc(C)c(-c2nc(CC(C)(C)O)no2)s1

IC50 [1]: 14 nM
IC50 [6]: 231 nM
SMILES: CC(=O)Nc1nc(C)c(-c2nc(C(C)(C)C)no2)s1

IC50 [1]: 57 nM
IC50 [6]: 558 nM
SMILES: CC(=O)Nc1nc(C)c(-c2nc(C3CCOC3)no2)s1 (stereo not drawn)

IC50 [1]: 100 nM
SMILES: CC(=O)Nc1nc(C)c(-c2nc(N3CCOCC3)no2)s1

IC50 [1]: 7.2 nM
AUC(0-t) at 8 h [2]: 92 ng·h/mL
remaining at 1 h, 5 µM [15]: 11.3%
remaining at 0.25 h, 5 µM [3]: 102%
remaining at 1 h, 5 µM [16]: 9.3%
Cmax [4]: 38 ng/mL
remaining at 0.25 h, 5 µM [5]: 94%
IC50 [6]: 191 nM
SMILES: CC(=O)Nc1nc(C)c(-c2nc(CC(C)(C)CO)no2)s1

IC50 [1]: 203 nM
SMILES: CC(=O)Nc1nc(C)c(-c2nc(CCC(C)(C)O)no2)s1

IC50 [1]: 62 nM
SMILES: CC(=O)Nc1nc(C)c(-c2nc(C(C)(C)CCO)no2)s1

Further lines, the compound ahead of its results:

SMILES: CC(=O)Nc1nc(C)c(-c2nc(CC(F)(F)F)no2)s1
IC50 [1]: 28 nM
AUC(0-t) at 8 h [2]: 1180 ng·h/mL
remaining at 0.25 h, 5 µM [3]: 79.1%
Cmax [4]: 345 ng/mL
remaining at 0.25 h, 5 µM [5]: 72.9%
IC50 [6]: 278 nM

SMILES: Cc1nc(N)sc1-c1nc(C(C)(C)C)no1
IC50 [1]: 68 nM
Activity [7]: Non-toxic
Activity [8]: Non-toxic
Activity [9]: Non-toxic
Activity [10]: Non-toxic
Activity [11]: Non-toxic
Activity [12]: Non-toxic
Activity [13]: Non-toxic
Activity [14]: Non-toxic

SMILES: Cc1nc(N)sc1-c1cnc(C(C)(C)C)o1
IC50 [1]: 81 nM
Activity [7]: Toxic
Activity [8]: Toxic
Activity [9]: Toxic
Activity [10]: Toxic
Activity [11]: Toxic
Activity [12]: Toxic
Activity [13]: Toxic
Activity [14]: Toxic

SMILES: CC(=O)Nc1nc(C)c(-c2nc(CCCO)no2)s1
IC50 [1]: 121 nM

SMILES: CC(=O)Nc1nc(C)c(-c2cnc(C(C)(C)C)o2)s1
Activity [7]: Non-toxic
Activity [8]: Non-toxic
Activity [9]: Non-toxic
Activity [12]: Non-toxic
Activity [13]: Non-toxic
Activity [14]: Non-toxic

SMILES: CC(=O)Nc1nc(C)c(-c2nc(C(C)(C)CO)no2)s1
IC50 [1]: 52 nM

SMILES: CC(=O)Nc1nc(C)c(-c2nc(CC(C)(C)C(C)O)no2)s1 (stereo not drawn)
IC50 [1]: 17 nM
AUC(0-t) at 8 h [2]: 10900 ng·h/mL
remaining at 1 h, 5 µM [15]: 20.9%
remaining at 0.25 h, 5 µM [3]: 94.1%
remaining at 1 h, 5 µM [16]: 35.2%
Cmax [4]: 7800 ng/mL
remaining at 0.25 h, 5 µM [5]: 91.5%
IC50 [6]: 155 nM

SMILES: COCC(C)(C)Cc1noc(-c2sc(NC(C)=O)nc2C)n1
IC50 [1]: 68 nM

SMILES: CC(=O)Nc1nc(C)c(-c2nc(CCO)no2)s1
IC50 [1]: 158 nM

SMILES: CC(=O)Nc1nc(C)c(-c2nc(N3CCCC(O)C3)no2)s1 (stereo not drawn)
IC50 [1]: 29 nM
AUC(0-t) at 8 h [2]: 10800 ng·h/mL
Activity [17]: Dose-dependent effect
inhibition (INH) [18]: Not Active
inhibition (INH) [19]: Not Active
remaining at 1 h, 5 µM [15]: 62.1%
Activity [7]: Non-toxic
Activity [8]: Non-toxic
Activity [9]: Non-toxic
Activity [10]: Non-toxic
remaining at 0.25 h, 5 µM [3]: 96.9%
remaining at 1 h, 5 µM [16]: 75.7%
Cmax [4]: 3920 ng/mL
remaining at 0.25 h, 5 µM [5]: 97.1%
Activity [11]: Non-toxic
Activity [12]: Non-toxic
inhibition (INH) [20]: Not Active
Activity [13]: Non-toxic
IC50 [6]: 294 nM
Activity [14]: Non-toxic
inhibition (INH) [21]: Not Active
inhibition (INH) [22]: Not Active

SMILES: Cc1nc(N)sc1-c1nc(N2CCCC(O)C2)no1 (stereo not drawn)
Activity [7]: Non-toxic
Activity [8]: Non-toxic
Activity [9]: Non-toxic
Activity [10]: Non-toxic
Activity [11]: Non-toxic
Activity [12]: Non-toxic
Activity [13]: Non-toxic
Activity [14]: Non-toxic
